{"source": "paper PMC9276671", "about": "“A first-in-human Phase I dose-escalation trial of the novel therapeutic peptide, ALM201, demonstrates a favourable safety profile in unselected patients with ovarian cancer and other advanced solid tumours” (British Journal of Cancer, 2022)", "assay": "Plasma pharmacokinetics of ALM201 in Phase I patients (validated LC-MS/MS, Phoenix WinNonlin)", "settings": "for Tmax: median, plasma LC-MS/MS; for Half-life: SC, day 1 cycle 1", "note": "No end group written: not given here."}
{"sequence": "IRQQPRDPPTETLELEVSPDPAS [ALM201]", "values": [{"measurement": "level at 2 h", "setting": "human, plasma, sc, 300 mg, Plasma concentration, geometric mean (CV%), 300 mg SC, day 1 cycle 1, 2 h after dosing, n = 3, LC-MS/MS", "result": 2310, "unit": "ng/mL"}, {"measurement": "level at 3 h", "setting": "human, plasma, sc, 300 mg, Plasma concentration, geometric mean (CV%), 300 mg SC, day 1 cycle 1, 3 h after dosing, n = 3, LC-MS/MS", "result": 2120, "unit": "ng/mL"}, {"measurement": "level at 4 h", "setting": "human, plasma, sc, 300 mg, Plasma concentration, geometric mean (CV%), 300 mg SC, day 1 cycle 1, 4 h after dosing, n = 3, LC-MS/MS", "result": 1600, "unit": "ng/mL"}, {"measurement": "level at 5 h", "setting": "human, plasma, sc, 300 mg, Plasma concentration, geometric mean (CV%), 300 mg SC, day 1 cycle 1, 5 h after dosing, n = 3, LC-MS/MS", "result": 1280, "unit": "ng/mL"}, {"measurement": "level at 6 h", "setting": "human, plasma, sc, 300 mg, Plasma concentration, geometric mean (CV%), 300 mg SC, day 1 cycle 1, 6 h after dosing, n = 3, LC-MS/MS", "result": 901, "unit": "ng/mL"}, {"measurement": "level at 7 h", "setting": "human, plasma, sc, 300 mg, Plasma concentration, geometric mean (CV%), 300 mg SC, day 1 cycle 1, 7 h after dosing, n = 3, LC-MS/MS", "result": 703, "unit": "ng/mL"}, {"measurement": "level at 8 h", "setting": "human, plasma, sc, 300 mg, Plasma concentration, geometric mean (CV%), 300 mg SC, day 1 cycle 1, 8 h after dosing, n = 3, LC-MS/MS", "result": 420, "unit": "ng/mL"}, {"measurement": "level at 0.5 h", "setting": "human, plasma, sc, 300 mg, Plasma concentration, geometric mean (CV%), 300 mg SC, day 3 cycle 1, 0.5 h after dosing, n = 3, LC-MS/MS", "result": 1970, "unit": "ng/mL"}, {"measurement": "level at 1 h", "setting": "human, plasma, sc, 300 mg, Plasma concentration, geometric mean (CV%), 300 mg SC, day 3 cycle 1, 1 h after dosing, n = 3, LC-MS/MS", "result": 2590, "unit": "ng/mL"}, {"measurement": "level at 1.5 h", "setting": "human, plasma, sc, 300 mg, Plasma concentration, geometric mean (CV%), 300 mg SC, day 3 cycle 1, 1.5 h after dosing, n = 2 values (CV NC), LC-MS/MS", "result": 1950, "unit": "ng/mL"}, {"measurement": "level at 2 h", "setting": "human, plasma, sc, 300 mg, Plasma concentration, geometric mean (CV%), 300 mg SC, day 3 cycle 1, 2 h after dosing, n = 2 values (CV NC), LC-MS/MS", "result": 2450, "unit": "ng/mL"}, {"measurement": "level at 4.5 h", "setting": "human, plasma, sc, 300 mg, Plasma concentration, geometric mean (CV%), 300 mg SC, day 3 cycle 1, 4.5 h after dosing, n = 3, LC-MS/MS", "result": 1740, "unit": "ng/mL"}, {"measurement": "level at 7 h", "setting": "human, plasma, sc, 300 mg, Plasma concentration, geometric mean (CV%), 300 mg SC, day 3 cycle 1, 7 h after dosing, n = 3, LC-MS/MS", "result": 852, "unit": "ng/mL"}, {"measurement": "level at 0.5 h", "setting": "human, plasma, sc, 300 mg, Plasma concentration, geometric mean (CV%), 300 mg SC, day 18 cycle 1, 0.5 h after dosing, n = 3, LC-MS/MS", "result": 2290, "unit": "ng/mL"}, {"measurement": "level at 1 h", "setting": "human, plasma, sc, 300 mg, Plasma concentration, geometric mean (CV%), 300 mg SC, day 18 cycle 1, 1 h after dosing, n = 3, LC-MS/MS", "result": 2410, "unit": "ng/mL"}, {"measurement": "level at 1.5 h", "setting": "human, plasma, sc, 300 mg, Plasma concentration, geometric mean (CV%), 300 mg SC, day 18 cycle 1, 1.5 h after dosing, n = 3, LC-MS/MS", "result": 2600, "unit": "ng/mL"}, {"measurement": "level at 2 h", "setting": "human, plasma, sc, 300 mg, Plasma concentration, geometric mean (CV%), 300 mg SC, day 18 cycle 1, 2 h after dosing, n = 3, LC-MS/MS", "result": 2520, "unit": "ng/mL"}, {"measurement": "level at 4.5 h", "setting": "human, plasma, sc, 300 mg, Plasma concentration, geometric mean (CV%), 300 mg SC, day 18 cycle 1, 4.5 h after dosing, n = 3, LC-MS/MS", "result": 1370, "unit": "ng/mL"}, {"measurement": "level at 7 h", "setting": "human, plasma, sc, 300 mg, Plasma concentration, geometric mean (CV%), 300 mg SC, day 18 cycle 1, 7 h after dosing, n = 3, LC-MS/MS", "result": 767, "unit": "ng/mL"}, {"measurement": "level at 0.5 h", "setting": "human, plasma, sc, 300 mg, Plasma concentration, geometric mean (CV%), 300 mg SC, day 18 cycle 2, 0.5 h after dosing, n = 3, LC-MS/MS", "result": 1990, "unit": "ng/mL"}, {"measurement": "level at 1 h", "setting": "human, plasma, sc, 300 mg, Plasma concentration, geometric mean (CV%), 300 mg SC, day 18 cycle 2, 1 h after dosing, n = 3, LC-MS/MS", "result": 2280, "unit": "ng/mL"}, {"measurement": "level at 1.5 h", "setting": "human, plasma, sc, 300 mg, Plasma concentration, geometric mean (CV%), 300 mg SC, day 18 cycle 2, 1.5 h after dosing, n = 3, LC-MS/MS", "result": 2380, "unit": "ng/mL"}, {"measurement": "level at 2 h", "setting": "human, plasma, sc, 300 mg, Plasma concentration, geometric mean (CV%), 300 mg SC, day 18 cycle 2, 2 h after dosing, n = 3, LC-MS/MS", "result": 2540, "unit": "ng/mL"}, {"measurement": "level at 4.5 h", "setting": "human, plasma, sc, 300 mg, Plasma concentration, geometric mean (CV%), 300 mg SC, day 18 cycle 2, samples collected at 4.5 hours, n = 3, LC-MS/MS", "result": 720, "unit": "ng/mL"}, {"measurement": "level at 7 h", "setting": "human, plasma, sc, 300 mg, Plasma concentration, geometric mean (CV%), 300 mg SC, day 18 cycle 2, samples collected at 7.0 hours, n = 3, LC-MS/MS", "result": 485, "unit": "ng/mL"}, {"measurement": "level at 0.5 h", "setting": "human, plasma, sc, 300 mg, Plasma concentration, geometric mean (CV%), 300 mg SC, day 18 cycle 4, 0.5 h after dosing, n = 1, LC-MS/MS", "result": 1670, "unit": "ng/mL"}, {"measurement": "level at 1 h", "setting": "human, plasma, sc, 300 mg, Plasma concentration, geometric mean (CV%), 300 mg SC, day 18 cycle 4, 1 h after dosing, n = 1, LC-MS/MS", "result": 2140, "unit": "ng/mL"}, {"measurement": "level at 1.5 h", "setting": "human, plasma, sc, 300 mg, Plasma concentration, geometric mean (CV%), 300 mg SC, day 18 cycle 4, 1.5 h after dosing, n = 1, LC-MS/MS", "result": 1990, "unit": "ng/mL"}, {"measurement": "level at 2 h", "setting": "human, plasma, sc, 300 mg, Plasma concentration, geometric mean (CV%), 300 mg SC, day 18 cycle 4, 2 h after dosing, n = 1, LC-MS/MS", "result": 1990, "unit": "ng/mL"}, {"measurement": "level at 4.5 h", "setting": "human, plasma, sc, 300 mg, Plasma concentration, geometric mean (CV%), 300 mg SC, day 18 cycle 4, sample collected at 4.5 hours, n = 1, LC-MS/MS", "result": 854, "unit": "ng/mL"}, {"measurement": "level at 7 h", "setting": "human, plasma, sc, 300 mg, Plasma concentration, geometric mean (CV%), 300 mg SC, day 18 cycle 4, sample collected at 7.0 hours, n = 1, LC-MS/MS", "result": 387, "unit": "ng/mL"}, {"measurement": "level at 0.5 h", "setting": "human, plasma, sc, 300 mg, Plasma concentration, geometric mean (CV%), 300 mg SC, day 18 cycle 6, 0.5 h after dosing, n = 1, LC-MS/MS", "result": 3150, "unit": "ng/mL"}, {"measurement": "level at 1 h", "setting": "human, plasma, sc, 300 mg, Plasma concentration, geometric mean (CV%), 300 mg SC, day 18 cycle 6, 1 h after dosing, n = 1, LC-MS/MS", "result": 4430, "unit": "ng/mL"}, {"measurement": "level at 1.5 h", "setting": "human, plasma, sc, 300 mg, Plasma concentration, geometric mean (CV%), 300 mg SC, day 18 cycle 6, 1.5 h after dosing, n = 1, LC-MS/MS", "result": 5240, "unit": "ng/mL"}, {"measurement": "level at 2 h", "setting": "human, plasma, sc, 300 mg, Plasma concentration, geometric mean (CV%), 300 mg SC, day 18 cycle 6, 2 h after dosing, n = 1, LC-MS/MS", "result": 6830, "unit": "ng/mL"}, {"measurement": "level at 4.5 h", "setting": "human, plasma, sc, 300 mg, Plasma concentration, geometric mean (CV%), 300 mg SC, day 18 cycle 6, sample collected at 4.5 hours, n = 1, LC-MS/MS", "result": 3600, "unit": "ng/mL"}, {"measurement": "level at 7 h", "setting": "human, plasma, sc, 300 mg, Plasma concentration, geometric mean (CV%), 300 mg SC, day 18 cycle 6, sample collected at 7.0 hours, n = 1, LC-MS/MS", "result": 693, "unit": "ng/mL"}, {"measurement": "Tmax", "setting": "human, plasma, sc, 300 mg, 300 mg SC, day 1 cycle 1, n = 3", "result": 2, "unit": "h"}, {"measurement": "Tmax", "setting": "human, plasma, sc, 300 mg, 300 mg SC, day 3 cycle 1, n = 3", "result": 1.02, "unit": "h"}, {"measurement": "Tmax", "setting": "human, plasma, sc, 300 mg, 300 mg SC, day 18 cycle 1, n = 3", "result": 1.5, "unit": "h"}, {"measurement": "Tmax", "setting": "human, plasma, sc, 300 mg, 300 mg SC, day 18 cycle 4, n = 1", "result": 1.12, "unit": "h"}, {"measurement": "Tmax", "setting": "human, plasma, sc, 300 mg, 300 mg SC, day 18 cycle 6, n = 1", "result": 2.02, "unit": "h"}, {"measurement": "Half-life", "setting": "patient 02.002, 80 mg cohort", "result": 1.80, "unit": "h"}, {"measurement": "Half-life", "setting": "patient 02.003, 160 mg cohort", "result": 1.50, "unit": "h"}, {"measurement": "Half-life", "setting": "patient 03.005, 160 mg cohort", "result": 0.90, "unit": "h"}]}
